According to ChEMBL document CHEMBL4422610, “HDAC as onco target: Reviewing the synthetic approaches with SAR study of their inhibitors” (Eur J Med Chem, 2018):
One block for each compound: values may come before it.

How the values were obtained:
[1] = molecular target: T1, Protein deacetylase HDAC6 (Homo sapiens, UniProt Q9UBN7); assay: Inhibition of recombinant full-length human HDAC6 expressed in baculovirus expression system using FAM-RHKK(Ac)-H2 as substrate measured by electrophoretic mobility shift assay
T1 sequence (Q9UBN7 whole entry): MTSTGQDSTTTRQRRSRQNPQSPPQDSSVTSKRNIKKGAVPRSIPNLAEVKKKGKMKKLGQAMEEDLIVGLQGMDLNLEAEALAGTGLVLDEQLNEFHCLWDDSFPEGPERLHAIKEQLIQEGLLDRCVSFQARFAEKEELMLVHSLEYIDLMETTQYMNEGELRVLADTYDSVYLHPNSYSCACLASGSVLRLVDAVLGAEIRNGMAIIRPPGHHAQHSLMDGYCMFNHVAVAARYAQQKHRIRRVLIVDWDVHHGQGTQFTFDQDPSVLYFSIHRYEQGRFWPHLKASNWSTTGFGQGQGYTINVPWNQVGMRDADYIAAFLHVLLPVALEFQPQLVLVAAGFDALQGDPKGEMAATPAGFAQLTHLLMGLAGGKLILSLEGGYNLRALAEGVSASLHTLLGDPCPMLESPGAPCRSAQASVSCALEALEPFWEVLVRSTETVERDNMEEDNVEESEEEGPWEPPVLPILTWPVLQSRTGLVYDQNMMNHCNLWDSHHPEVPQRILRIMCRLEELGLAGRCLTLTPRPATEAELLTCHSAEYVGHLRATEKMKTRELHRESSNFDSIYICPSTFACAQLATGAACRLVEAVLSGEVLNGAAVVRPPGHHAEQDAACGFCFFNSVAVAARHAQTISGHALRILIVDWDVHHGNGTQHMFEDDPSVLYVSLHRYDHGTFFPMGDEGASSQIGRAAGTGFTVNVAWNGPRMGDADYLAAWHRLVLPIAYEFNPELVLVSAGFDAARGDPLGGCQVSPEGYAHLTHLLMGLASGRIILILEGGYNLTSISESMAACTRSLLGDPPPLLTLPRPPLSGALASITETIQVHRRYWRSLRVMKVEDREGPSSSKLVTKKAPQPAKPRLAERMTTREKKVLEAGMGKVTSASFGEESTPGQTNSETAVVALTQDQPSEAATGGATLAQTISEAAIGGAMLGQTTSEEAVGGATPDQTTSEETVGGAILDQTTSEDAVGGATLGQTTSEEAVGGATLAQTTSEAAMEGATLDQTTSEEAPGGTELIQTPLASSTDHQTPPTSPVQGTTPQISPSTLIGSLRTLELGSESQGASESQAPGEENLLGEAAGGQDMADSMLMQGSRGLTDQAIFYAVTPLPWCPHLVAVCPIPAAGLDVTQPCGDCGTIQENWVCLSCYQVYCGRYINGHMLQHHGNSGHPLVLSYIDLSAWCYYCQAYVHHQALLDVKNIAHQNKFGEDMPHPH

Histone deacetylase 1 [2] = molecular target: T2, Histone deacetylase 1 (Homo sapiens, UniProt Q13547); assay: Inhibition of human HDAC1 using fluorogenic HDAC substrate
T2 sequence (Q13547 whole entry): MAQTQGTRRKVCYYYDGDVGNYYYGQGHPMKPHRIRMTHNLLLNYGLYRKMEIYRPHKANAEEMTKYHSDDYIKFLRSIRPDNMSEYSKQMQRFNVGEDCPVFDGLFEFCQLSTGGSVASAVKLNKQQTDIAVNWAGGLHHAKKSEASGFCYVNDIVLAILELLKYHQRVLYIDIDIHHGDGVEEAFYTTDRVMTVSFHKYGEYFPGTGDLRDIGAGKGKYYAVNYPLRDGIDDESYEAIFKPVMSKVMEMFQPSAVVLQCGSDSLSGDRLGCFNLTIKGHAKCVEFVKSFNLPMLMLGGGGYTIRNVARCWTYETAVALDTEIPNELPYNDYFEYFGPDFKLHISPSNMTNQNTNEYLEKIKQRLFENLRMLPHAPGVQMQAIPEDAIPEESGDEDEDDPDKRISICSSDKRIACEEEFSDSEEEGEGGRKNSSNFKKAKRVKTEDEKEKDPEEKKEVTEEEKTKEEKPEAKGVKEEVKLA

Histone deacetylase 3 [3] = molecular target: T3, Histone deacetylase 3 (Homo sapiens, UniProt O15379); assay: Inhibition of human HDAC3 using fluorogenic HDAC substrate
T3 sequence (O15379 whole entry): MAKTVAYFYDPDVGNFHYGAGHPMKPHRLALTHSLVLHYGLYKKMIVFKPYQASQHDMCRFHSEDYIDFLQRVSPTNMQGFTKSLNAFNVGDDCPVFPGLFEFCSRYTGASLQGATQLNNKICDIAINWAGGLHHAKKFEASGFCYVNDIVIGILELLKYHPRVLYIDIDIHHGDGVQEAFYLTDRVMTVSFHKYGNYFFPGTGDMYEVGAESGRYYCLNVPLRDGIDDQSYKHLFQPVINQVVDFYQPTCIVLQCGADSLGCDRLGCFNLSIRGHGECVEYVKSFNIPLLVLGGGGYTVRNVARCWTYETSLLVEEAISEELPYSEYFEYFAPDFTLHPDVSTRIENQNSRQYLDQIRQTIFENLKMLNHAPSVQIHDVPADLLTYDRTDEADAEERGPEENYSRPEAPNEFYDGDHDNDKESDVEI

Histone deacetylase 4 = Histone deacetylase 4 (Homo sapiens, UniProt P56524); assay: Inhibition of human HDAC4 using fluorogenic HDAC substrate
Histone deacetylase 4, sequence (P56524 whole entry): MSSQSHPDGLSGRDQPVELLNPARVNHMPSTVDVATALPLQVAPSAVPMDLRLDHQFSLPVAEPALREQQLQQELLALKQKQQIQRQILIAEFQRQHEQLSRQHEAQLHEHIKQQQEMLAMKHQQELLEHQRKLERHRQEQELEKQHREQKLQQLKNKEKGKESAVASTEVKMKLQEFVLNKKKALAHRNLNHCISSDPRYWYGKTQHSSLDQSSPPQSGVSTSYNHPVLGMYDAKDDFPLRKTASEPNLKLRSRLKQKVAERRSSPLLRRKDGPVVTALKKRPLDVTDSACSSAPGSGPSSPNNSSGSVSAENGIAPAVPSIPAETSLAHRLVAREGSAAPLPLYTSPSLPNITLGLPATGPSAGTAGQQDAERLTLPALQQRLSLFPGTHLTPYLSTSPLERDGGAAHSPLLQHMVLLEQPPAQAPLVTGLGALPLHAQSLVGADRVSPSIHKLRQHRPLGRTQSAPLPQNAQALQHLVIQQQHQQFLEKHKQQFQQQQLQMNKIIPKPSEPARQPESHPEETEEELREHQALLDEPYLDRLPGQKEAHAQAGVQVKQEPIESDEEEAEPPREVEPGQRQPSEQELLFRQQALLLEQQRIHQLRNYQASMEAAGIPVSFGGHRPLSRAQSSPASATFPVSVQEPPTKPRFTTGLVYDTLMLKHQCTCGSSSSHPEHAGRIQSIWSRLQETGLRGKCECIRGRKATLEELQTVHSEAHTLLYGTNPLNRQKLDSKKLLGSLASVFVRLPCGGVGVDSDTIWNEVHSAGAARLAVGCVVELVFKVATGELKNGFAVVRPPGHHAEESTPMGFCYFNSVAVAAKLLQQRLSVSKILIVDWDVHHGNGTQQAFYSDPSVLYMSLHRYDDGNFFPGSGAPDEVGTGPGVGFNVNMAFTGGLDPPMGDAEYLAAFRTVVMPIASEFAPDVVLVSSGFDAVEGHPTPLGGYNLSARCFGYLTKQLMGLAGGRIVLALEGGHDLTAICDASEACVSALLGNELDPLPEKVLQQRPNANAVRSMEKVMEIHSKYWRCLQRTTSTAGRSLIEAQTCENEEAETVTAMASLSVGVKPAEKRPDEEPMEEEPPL

Histone deacetylase 5 = Histone deacetylase 5 (Homo sapiens, UniProt Q9UQL6); assay: Inhibition of human HDAC5 using fluorogenic HDAC substrate
Histone deacetylase 5, sequence (Q9UQL6 whole entry): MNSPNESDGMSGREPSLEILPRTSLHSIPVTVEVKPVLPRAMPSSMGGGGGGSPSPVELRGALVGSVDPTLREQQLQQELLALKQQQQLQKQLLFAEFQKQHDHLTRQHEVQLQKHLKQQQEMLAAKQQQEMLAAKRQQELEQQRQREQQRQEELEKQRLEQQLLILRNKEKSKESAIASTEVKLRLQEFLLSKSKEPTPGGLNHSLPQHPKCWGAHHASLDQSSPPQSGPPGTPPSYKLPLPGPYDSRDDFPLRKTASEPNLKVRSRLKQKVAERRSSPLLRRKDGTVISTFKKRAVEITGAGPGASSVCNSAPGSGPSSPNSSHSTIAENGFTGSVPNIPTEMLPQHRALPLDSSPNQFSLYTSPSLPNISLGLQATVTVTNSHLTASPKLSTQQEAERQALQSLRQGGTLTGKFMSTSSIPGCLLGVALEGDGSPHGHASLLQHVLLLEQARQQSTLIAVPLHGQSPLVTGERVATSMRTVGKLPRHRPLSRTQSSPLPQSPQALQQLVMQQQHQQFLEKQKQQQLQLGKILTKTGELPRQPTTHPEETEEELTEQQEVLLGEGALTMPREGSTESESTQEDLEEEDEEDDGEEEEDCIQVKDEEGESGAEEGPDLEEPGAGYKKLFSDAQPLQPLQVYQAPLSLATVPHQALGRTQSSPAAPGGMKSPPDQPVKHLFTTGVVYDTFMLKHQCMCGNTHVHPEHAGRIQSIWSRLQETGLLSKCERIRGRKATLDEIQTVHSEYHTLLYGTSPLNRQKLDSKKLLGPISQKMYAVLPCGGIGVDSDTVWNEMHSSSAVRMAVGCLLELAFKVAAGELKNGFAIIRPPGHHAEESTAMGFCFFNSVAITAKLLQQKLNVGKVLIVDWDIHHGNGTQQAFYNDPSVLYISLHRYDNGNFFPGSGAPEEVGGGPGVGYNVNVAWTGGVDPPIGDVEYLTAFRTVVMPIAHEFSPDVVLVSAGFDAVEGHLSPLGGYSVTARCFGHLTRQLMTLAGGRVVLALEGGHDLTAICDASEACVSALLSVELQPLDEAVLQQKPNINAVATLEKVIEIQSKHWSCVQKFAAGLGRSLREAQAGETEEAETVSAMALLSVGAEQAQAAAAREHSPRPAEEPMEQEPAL

[4] = molecular target: T1, Protein deacetylase HDAC6; assay: Inhibition of human HDAC6 using fluorogenic HDAC substrate
Histone deacetylase 8 = molecular target: T4, Histone deacetylase 8 (Homo sapiens, UniProt Q9BY41); assay: Inhibition of human HDAC8 using fluorogenic HDAC substrate
T4 sequence (Q9BY41 whole entry): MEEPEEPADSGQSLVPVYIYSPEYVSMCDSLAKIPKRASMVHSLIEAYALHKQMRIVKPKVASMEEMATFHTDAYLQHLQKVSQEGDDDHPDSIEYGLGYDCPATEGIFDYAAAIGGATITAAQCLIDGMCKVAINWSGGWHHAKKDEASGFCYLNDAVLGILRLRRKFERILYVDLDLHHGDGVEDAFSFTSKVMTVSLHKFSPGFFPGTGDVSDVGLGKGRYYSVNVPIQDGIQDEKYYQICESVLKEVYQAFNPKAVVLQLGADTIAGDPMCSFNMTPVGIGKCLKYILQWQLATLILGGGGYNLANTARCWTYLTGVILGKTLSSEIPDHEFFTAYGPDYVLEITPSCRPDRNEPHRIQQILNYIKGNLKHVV

Histone deacetylase 9 = Histone deacetylase 9 (Homo sapiens, UniProt Q9UKV0); assay: Inhibition of human HDAC9 using fluorogenic HDAC substrate
Histone deacetylase 9, sequence (Q9UKV0 whole entry): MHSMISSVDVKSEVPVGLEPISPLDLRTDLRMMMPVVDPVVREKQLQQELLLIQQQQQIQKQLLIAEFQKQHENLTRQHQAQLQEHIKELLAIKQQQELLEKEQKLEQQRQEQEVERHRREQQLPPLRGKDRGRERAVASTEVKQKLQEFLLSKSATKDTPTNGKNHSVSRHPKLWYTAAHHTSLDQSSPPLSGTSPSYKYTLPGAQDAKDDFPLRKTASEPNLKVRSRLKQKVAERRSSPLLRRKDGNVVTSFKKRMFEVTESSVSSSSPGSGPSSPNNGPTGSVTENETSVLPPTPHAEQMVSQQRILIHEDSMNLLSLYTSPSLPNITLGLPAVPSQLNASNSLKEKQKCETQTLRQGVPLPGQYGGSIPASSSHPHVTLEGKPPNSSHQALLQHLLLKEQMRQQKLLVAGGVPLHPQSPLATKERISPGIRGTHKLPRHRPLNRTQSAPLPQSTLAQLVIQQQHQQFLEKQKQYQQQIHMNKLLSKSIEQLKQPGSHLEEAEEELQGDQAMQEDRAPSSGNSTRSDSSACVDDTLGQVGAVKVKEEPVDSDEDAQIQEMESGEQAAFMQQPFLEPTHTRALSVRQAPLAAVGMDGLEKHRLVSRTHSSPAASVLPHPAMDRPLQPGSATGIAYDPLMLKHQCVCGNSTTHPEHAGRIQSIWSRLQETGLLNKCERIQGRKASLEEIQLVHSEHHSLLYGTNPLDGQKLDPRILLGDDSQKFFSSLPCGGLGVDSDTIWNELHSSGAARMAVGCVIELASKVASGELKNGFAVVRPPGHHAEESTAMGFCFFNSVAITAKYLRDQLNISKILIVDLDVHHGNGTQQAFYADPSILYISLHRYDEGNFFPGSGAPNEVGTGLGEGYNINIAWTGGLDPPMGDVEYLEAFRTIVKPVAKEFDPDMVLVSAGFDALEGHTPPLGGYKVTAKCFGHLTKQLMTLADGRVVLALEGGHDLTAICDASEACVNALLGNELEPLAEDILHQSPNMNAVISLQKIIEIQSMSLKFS

[5] = molecular target: T5, Polyamine deacetylase HDAC10 (Homo sapiens, UniProt Q969S8); assay: Inhibition of human HDAC10 using fluorogenic HDAC substrate
T5 sequence (Q969S8 whole entry): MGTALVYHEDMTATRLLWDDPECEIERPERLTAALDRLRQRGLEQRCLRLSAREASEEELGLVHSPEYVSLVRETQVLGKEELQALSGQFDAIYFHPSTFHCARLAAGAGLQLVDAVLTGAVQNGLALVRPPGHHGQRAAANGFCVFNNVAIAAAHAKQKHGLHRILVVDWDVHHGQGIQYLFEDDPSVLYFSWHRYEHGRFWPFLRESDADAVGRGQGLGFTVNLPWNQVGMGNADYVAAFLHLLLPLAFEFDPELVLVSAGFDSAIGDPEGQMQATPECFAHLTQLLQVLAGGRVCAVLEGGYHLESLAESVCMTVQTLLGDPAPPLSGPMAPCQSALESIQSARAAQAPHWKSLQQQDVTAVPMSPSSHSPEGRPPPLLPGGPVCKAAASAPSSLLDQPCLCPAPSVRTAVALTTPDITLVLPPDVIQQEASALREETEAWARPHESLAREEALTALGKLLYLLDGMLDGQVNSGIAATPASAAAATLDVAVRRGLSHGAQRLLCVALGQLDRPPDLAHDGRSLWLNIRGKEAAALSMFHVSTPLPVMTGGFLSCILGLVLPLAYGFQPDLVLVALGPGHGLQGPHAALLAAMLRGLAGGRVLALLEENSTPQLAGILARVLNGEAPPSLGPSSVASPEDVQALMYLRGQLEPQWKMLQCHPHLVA

Histone deacetylase 11 = molecular target: T6, Histone deacetylase 11 (Homo sapiens, UniProt Q96DB2); assay: Inhibition of human HDAC11 using fluorogenic HDAC substrate
T6 sequence (Q96DB2 whole entry): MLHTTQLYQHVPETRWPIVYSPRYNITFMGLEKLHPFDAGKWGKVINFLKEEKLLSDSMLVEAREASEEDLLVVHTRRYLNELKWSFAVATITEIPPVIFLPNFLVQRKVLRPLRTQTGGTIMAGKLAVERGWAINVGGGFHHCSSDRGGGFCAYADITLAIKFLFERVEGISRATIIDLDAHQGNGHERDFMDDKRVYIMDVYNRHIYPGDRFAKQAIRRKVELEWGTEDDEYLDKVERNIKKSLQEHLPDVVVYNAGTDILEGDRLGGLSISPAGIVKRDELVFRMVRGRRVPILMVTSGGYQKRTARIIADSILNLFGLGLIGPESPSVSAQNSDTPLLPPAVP

Histone deacetylase 1 [6] = molecular target: T2, Histone deacetylase 1; assay: Inhibition of HDAC1 (unknown origin) using Ac-peptide as substrate preincubated for 15 mins followed by substrate addition and measured after 60 mins by fluorescence assay
[7] = molecular target: Histone deacetylase (HDAC1 and HDAC2) (Homo sapiens, UniProt Q13547+Q92769); format: cell-based; details: hela
Histone deacetylase 3 [8] = molecular target: T3, Histone deacetylase 3; assay: Inhibition of HDAC3 (unknown origin)
[9] = molecular target: T1, Protein deacetylase HDAC6; assay: Inhibition of HDAC6 (unknown origin)
Histone deacetylase 2 = Histone deacetylase 2 (Homo sapiens, UniProt Q92769); assay: Inhibition of human HDAC2 using fluorogenic HDAC substrate
Histone deacetylase 2, sequence (Q92769 whole entry): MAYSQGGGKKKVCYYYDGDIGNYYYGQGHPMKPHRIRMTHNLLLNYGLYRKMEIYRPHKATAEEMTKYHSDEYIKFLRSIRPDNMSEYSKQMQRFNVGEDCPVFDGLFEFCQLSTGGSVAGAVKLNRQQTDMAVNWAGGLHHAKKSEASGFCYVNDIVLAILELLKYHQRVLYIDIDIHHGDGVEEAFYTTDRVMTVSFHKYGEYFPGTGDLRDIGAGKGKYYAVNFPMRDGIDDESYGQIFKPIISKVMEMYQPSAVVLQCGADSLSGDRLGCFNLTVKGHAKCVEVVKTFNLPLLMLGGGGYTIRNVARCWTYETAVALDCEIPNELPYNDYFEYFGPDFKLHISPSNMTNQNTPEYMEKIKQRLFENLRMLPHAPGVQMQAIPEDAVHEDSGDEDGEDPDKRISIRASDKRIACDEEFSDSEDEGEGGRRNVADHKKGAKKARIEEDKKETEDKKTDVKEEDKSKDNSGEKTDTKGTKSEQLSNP

Histone deacetylase 1 [10] = molecular target: T2, Histone deacetylase 1; assay: Inhibition of GST-tagged HDAC1 (unknown origin) expressed in insect cells using poly (Glu, Tyr) 4:1 as substrate measured after 15 mins in presence of [gamma-33P]ATP by Topcount method
Zea mays = assay: Inhibition of maize HD2 at 5 uM using [3H]acetate-labelled histone as substrate by liquid scintillation counting method relative to control

IC50 (Histone deacetylase 1 [6]): 4.93 µM
Compound: COc1ccccc1N1C(=O)CSC1c1cccc(C(=O)NCCCC(=O)NO)c1 (stereo not drawn)

IC50 [7]: 0.22 µM | IC50 (Histone deacetylase 3 [8]): 0.41 µM | IC50 [9]: 0.36 µM
Compound: COc1cc(/C=C/C(=O)NO)ccc1OCCCCNC(=O)c1ccccc1O

IC50 (Histone deacetylase 1 [6]): 0.029 µM
Compound: O=C(CCCCCCCOc1ccccc1N1C(=O)CSC1c1cccc(Br)c1)NO (stereo not drawn)

IC50 (Histone deacetylase 1 [6]): 1.86 µM
Compound: O=C(CCCOc1ccccc1N1C(=O)CSC1c1cccc(Br)c1)NO (stereo not drawn)

IC50 (Histone deacetylase 1 [6]): 0.029 µM
Compound: O=C(CCCCCC(=O)Nc1ccccc1N1C(=O)CSC1c1cccc(Br)c1)NO (stereo not drawn)

IC50 (Histone deacetylase 1 [6]): 0.26 µM
Compound: O=C(CCCCCOc1ccccc1N1C(=O)CSC1c1cccc(Br)c1)NO (stereo not drawn)

The remaining lines, values behind:

Compound: CC(C)N1CCC2(CCc3ccc(C(=O)NO)cc3C2)C1=O (stereo not drawn)
IC50 [1]: > 0.5 µM

Compound: O=C(NO)c1ccc(CN2c3ccccc3C[C@@H]3CCCCC[C@H]32)cc1
IC50 (Histone deacetylase 1 [2]): > 30 µM | IC50 (Histone deacetylase 3 [3]): > 30 µM | IC50 (Histone deacetylase 4): > 30 µM | IC50 (Histone deacetylase 5): > 30 µM | IC50 [4]: 0.033 µM | IC50 (Histone deacetylase 8): 6.7 µM | IC50 (Histone deacetylase 9): > 30 µM | IC50 [5]: > 30 µM | IC50 (Histone deacetylase 11): 1.2 µM

Compound: O=C(NO)c1ccc(Cn2c3c(c4ccccc42)CS(=O)(=O)CC3)cc1
IC50 (Histone deacetylase 2): 26 µM | IC50 (Histone deacetylase 3 [3]): 29 µM | IC50 (Histone deacetylase 5): 0.5 µM | IC50 (Histone deacetylase 9): 0.3 µM | IC50 [5]: 7.7 µM

Compound: O=C(NO)c1ccc(CN2c3ccccc3C3C2CCS3(=O)=O)cc1 (stereo not drawn)
IC50 (Histone deacetylase 1 [2]): 12 µM | IC50 (Histone deacetylase 2): > 30 µM | IC50 (Histone deacetylase 4): 0.6 µM | IC50 (Histone deacetylase 5): 0.4 µM | IC50 [4]: 0.0082 µM | IC50 (Histone deacetylase 8): 1.9 µM | IC50 (Histone deacetylase 9): 0.2 µM | IC50 [5]: 13 µM | IC50 (Histone deacetylase 11): 17 µM

Compound: O=C(/C=C/c1ccc(C2CCCN2CCc2cnn3ccccc23)cc1)NO (stereo not drawn)
IC50 (Histone deacetylase 1 [10]): 0.0009 µM

Compound: O=C(NO)c1ccc(Cn2c3c(c4cc(F)ccc42)CS(=O)(=O)CC3)cc1
IC50 (Histone deacetylase 2): 29 µM | IC50 (Histone deacetylase 3 [3]): 26 µM | IC50 (Histone deacetylase 5): 0.5 µM | IC50 (Histone deacetylase 8): 0.9 µM | IC50 (Histone deacetylase 9): 0.5 µM | IC50 [5]: 5.9 µM

Compound: O=C(/C=C/c1ccc(C2CCCN2CCc2c(-c3cccnc3)nn3ccccc23)cc1)NO (stereo not drawn)
IC50 (Histone deacetylase 1 [10]): 0.001 µM

Compound: O=C(NO)c1ccc(Cn2c3c(c4cc(F)ccc42)C[S+]([O-])CC3)cc1 (stereo not drawn)
IC50 (Histone deacetylase 1 [2]): 9.4 µM | IC50 (Histone deacetylase 2): > 30 µM | IC50 (Histone deacetylase 3 [3]): 24 µM | IC50 (Histone deacetylase 4): 1.2 µM | IC50 (Histone deacetylase 5): 1.3 µM | IC50 [4]: 0.0094 µM | IC50 (Histone deacetylase 8): 2.4 µM | IC50 (Histone deacetylase 9): 0.5 µM | IC50 [5]: 6.4 µM | IC50 (Histone deacetylase 11): 0.5 µM

Compound: O=C(NO)c1ccc2c(c1)CC1(CC2)CCN(Cc2cc(Cl)ccc2Cl)C1=O (stereo not drawn)
IC50 [1]: 0.1 to 0.5 µM

Compound: Cn1cc(C(=O)c2ccccc2)cc1/C=C/C(=O)NN
inhibition (Zea mays): 0.2%

Compound: O=C(NO)c1ccc(Cn2c3c(c4cc(F)ccc42)CSCC3)cc1
IC50 (Histone deacetylase 3 [3]): 23 µM | IC50 (Histone deacetylase 5): 1.8 µM | IC50 (Histone deacetylase 9): 0.8 µM | IC50 [5]: 21 µM

Compound: COc1ccc(CN2CCC3(CCc4ccc(C(=O)NO)cc4C3)C2=O)cc1 (stereo not drawn)
IC50 [1]: ≤ 0.1 µM

Compound: Cc1ccc(C(=O)c2cc(/C=C/C(=O)NO)n(C)c2)cc1
inhibition (Zea mays): 86.4%
